Read-outs that look alike come from different tables or passages of the source.

One assay has as its system PAI-1 promoter. Kind of assay: PAI-1 promoter activity (PGL3/PAI-1 luciferase reporter) in transfected HepG2 cells. The class given is cell-based, human. The note with it: for Activity in cpm (PAI-1 promoter activity): 10 μM, 24 h, n=6; for inhibition at 10 µM: Homo sapiens, HepG2, 24 h, read-out: % inhibition/control (PAI-1 promoter activity). The protocol: The study is carried out on a line of human hepatocytes HepG2 (ATCC, no. HB-8065). The cells are cultured in a medium of MEM (minimal essential medium) with glutamax-1 (Gibco™) containing 10% FCS (foetal calf serum), 1% non-essential amino acids and 1% sodium pyruvate and supplemented with penicillin and streptomycin.
A fragment of 2.5 kb, corresponding to the PAI-1 promoter, extending from the nucleotides at positions −2442 to +136, was amplified by PCR and sub-cloned (Lopez et al., 2000, Atherosclerosis, 152, 359-366). In a final reaction volume of 50 μl, 2.5 units of Platinum® TaqDNA Polymerase High Fidelity (Invitrogen) are placed in the presence of 300 ng of human genomic DNA (Clontech), 300 μM of dNTP (deoxynucleotide triphosphate) (Clontech), 300 nM of primers in a medium containing the buffer specific to the enzyme, supplemented by 1.5 mM of MgCl2 and different concentrations of PCRx Enhancer System (Invitrogen), which facilitates amplification of the especially difficult sequences (0 to 4×). The set of primers used (Chen et al. Differential mechanisms of PAI-1 gene activation by transforming growth factor beta and tumor necrosis factor alpha in endothelial cells, 2001, Thrmb Haemost, 86, 1563-72) is as follows:
Ligation of the pGL3-Basic plasmid vector and the insert corresponding to the PAI-1 promoter was carried out by means of T4 DNA Ligase (LigaFast™ Rapid DNA Ligation System from Promega). Conventionally, during ligation, there is used an excess of insert which is equivalent to three times the amount of vector. Furthermore, because this insert is half as long as the vector (2.5 kb as opposed to 4.8 kb), maintaining stoichiometric equilibrium requires twice the mass of […]. 37.5 ng of insert and 25 ng of pGL3-Basic vector were therefore reacted in the presence of 3 units of T4 ligase, at ambient temperature.
The PGL3/PAI-1 plasmid is transfected into HepG2 cells. Transfection is carried out in plates having cells at 50% confluence, depositing Lipofectin® (1 mg/ml) and 1.5 μg of PGL3/PAI-1 plasmid in each of the wells. The Lipofectin® is activated for 30 min in an OPTI-MEM medium (GIBCO™) and then brought into contact for 15 min with the plasmids previously diluted with the medium. The cells are incubated for 6 hours at 37° C. in an atmosphere containing 5% CO2 and 95% […]. The transfection medium is withdrawn and replaced overnight by an enriched culture medium in order to stabilise the cells. Expression of the reporter genes is induced over 24 h in an MEM medium without serum. The cells are scratched and lysed in a lysis buffer (Dual-Luciferase® kit, Promega) and then held at −20° C.
The induction phase is 24 h for the HepG2 cells in the presence of TGFβ1 (1 ng/ml). During that induction phase, a PAI-1 expression inhibitor may be added 4 h before TGFβ1 and kept in contact with the cells until the end of the 24 h of the induction phase.
The PAI-1 promoter activity is determined by quantification of the luciferase activity produced (Dual-Luciferase® kit, Promega). To each well there is added a solution of luciferin, the substrate of firefly luciferase. […] The plate is incubated for 10 min in the dark because the luciferase activity is sensitive to light, and then a luminometer reading is started in order to quantify the photons emitted (Wallac, Perkin Elmer), the result obtained being the average cpm (counts per minute) over a period of 5 s.
6,8-Diallyl-5,7-dihydroxy-2-(2-allyl-3-hydroxy-4-methoxyphenyl)-4H-1-benzopyran-4-one, arbitrarily referred to as compound A, and T686 of formula 3(E)-benzylidene-4(E)-(3,4,5-trimethoxybenzylidene)pyrrolidine-2,5-dione (PAI-1 expression inhibitor of reference, from Tanabe) were tested at a concentration of 10 μM on HepG2 cells in the basal state and after induction with TGFβ1. The PAI-1 promoter activity is measured in the control condition and in the presence of inhibitors, in the basal and induced states.

Assay [1] has as its system arterial thrombosis induced by FeCl3 on the abdominal aorta. Kind of assay: Model of arterial thrombosis induced by FeCl3 on the abdominal aorta in the rat. The class given is in vivo. The note with it: male CD rats, 30 mg/kg/day per os for 5 days, FeCl3 50% on aorta. The procedure: The studies were carried out on male CD rats weighing between 250 and 400 g (Charles River Laboratories). The experimental protocol carried out on groups of from 6 to 8 rats comprises a group for each compound under test to be compared with a control group in which the rats are treated with a solvent. These rats are used to study the effects of an antithrombotic in a model of arterial thrombosis induced by FeCl3 on the abdominal aorta (Tanaka et al. Z-335, a new thromboxane A2 receptor antagonist, prevents arterial thrombosis induced by ferric chloride in rats, 2000, Eur. J. Pharmacol., 401, 413-418).
The rats are treated with the compound under test, for example 6,8-diallyl-5,7-dihydroxy-2-(2-allyl-3-hydroxy-4-methoxyphenyl)-4H-1-benzopyran-4-one (30 mg/kg/day) by administration per os by gavage for 5 days before arterial thrombosis is induced in those rats. The rats are anaesthetised using pentobarbital 50 mg/kg by intraperitoneal administration and their abdominal aortas are exposed following laparotomy. […]
The activity of 6,8-diallyl-5,7-dihydroxy-2-(2-allyl-3-hydroxy-4-methoxyphenyl)-4H-1-benzopyran-4-one is evaluated as a function of the weight of the clot removed from the aorta, that activity being greater for a lesser weight of clot.

Setting [2] is: HepG2, induced by TGFβ1 (1 ng/ml).

As to `C=CCc1c(-c2cc(=O)c3c(O)c(CC=C)c(O)c(CC=C)c3o2)ccc(OC)c1O` [Compound A, 6,8-diallyl-5,7-dihydroxy-2-(2-allyl-3-hydroxy-4-methoxyphenyl)-4H-1-benzopyran-4-one], in the assay with PAI-1 promoter (HepG2, basal condition), the “Activity in cpm (PAI-1 promoter activity)” value (from here on “Activity in cpm”) is recorded as 445 ± 121 cpm and the inhibition at 10 µM came out at 69%. In the assay with PAI-1 promoter (setting [2]), the “Activity in cpm” value is on record as 765 ± 138 cpm and the inhibition at 10 µM stood at 78%. For the same compound, in assay [1], the “reduction in the weight of the clot with respect to the control” value was around 30%. In assay [1] (n=6, control 10.6 ± 0.7 mg), the Weight of clot is on record as 7.6 ± 0.4 mg.
For `COc1cc(/C=C2/C(=O)NC(=O)/C2=C/c2ccccc2)cc(OC)c1OC` [Compound T686, 3(E)-benzylidene-4(E)-(3,4,5-trimethoxybenzylidene)pyrrolidine-2,5-dione, reference compound], the “Activity in cpm” value came to 473 ± 143 cpm in the assay on PAI-1 promoter (HepG2, basal condition) and 1641 ± 173 cpm in the assay on PAI-1 promoter (setting [2]). In addition, the inhibition at 10 µM in the assay on PAI-1 promoter (HepG2, basal condition) is 67%; with PAI-1 promoter (setting [2]), 52%.
